Experimental data taken from patent US9381193B2, “Contraceptive methods and compositions” (WASHINGTON UNIVERSITY, priority 2011, dated 2016).

How the values were obtained:
FVB/NJ mice [1] = experiment: Ovarian histology and follicle counts in DHEA-fed mice; type: in vivo, mouse; details: 0.6% DHEA diet
From the text: Female FVB/NJ mice were obtained from Jackson Laboratories (Bar Harbor, Me., USA). Regular rodent chow was supplemented with DHEA at 0.01%, 0.1% and 0.6% w/w. Three-week-old mice had access to food and water ad libitum. Mice were fed control or DHEA-supplemented chow for two weeks. The Animal Studies Committee at Washington University School of Medicine reviewed and approved all animal experiments. Animals were maintained according to the Guide for the Care and Use of Laboratory Animals provided by the Institute for Laboratory Animal Research.
For histological evaluation, one ovary from five mice in each group was fixed in Bouin's solution, transferred to 70% ethanol then embedded in paraffin and serial sectioned at 10 microns. Every tenth section was kept and stained with hematoxylin and eosin. Follicles with visible nuclei were classified as primordial, primary, secondary or antral. Corpora lutea were also counted. Follicle counts from each classification were summed for each mouse.

G6PDH = target: T1, G6PDH (Mus musculus, UniProt Q00612); experiment: G6PDH enzyme activity in single oocytes of DHEA-fed mice; type: in vivo
T1 construct: Individual oocytes or blastocysts were extracted in nanoliter volume under oil; from tissue; host or cells: denuded germinal vesicle oocytes of mice
From the text: COCs were collected following superovulation with PMSG. Ovaries were removed and placed in M2 media (Sigma, St. Louis, Mo., USA). COCs were obtained by rupture of antral follicles with a syringe and needle. To collect denuded germinal vesicle (GV) oocytes, the cumulus cells were removed by gentle pipetting. The oviducts were removed from PMSG- and hCG-primed mice. The ampulla of the oviduct was punctured to release the clutch of ovulated oocytes 24 hr after hCG.
Denuded oocytes or cultured blastocysts were frozen on a glass slide with liquid nitrogen and dried overnight at −35° C. under vacuum. Individual oocytes or blastocysts were extracted in nanoliter volume under oil. Assays were designed to measure ATP, citrate and G6PDH by linking with NAD/NADH or NADP/NADPH which are enzymatically amplified in a cycling reaction allowing products to be measured by fluorometry.

[2] = Artificially induced deciduoma in ovariectomized mice; type: in vivo, mouse; details: female, FVB/NJ, mouse, serum, subcutaneous, 2 mg/100 g of body weight; measured on day +5; DHEA-treated group; read-out: Serum DHEA levels
Procedure: (§1) This induced deciduoma model allowed the study of the effect of increased DHEA on implantation independently of embryo development and ovarian function. Female mice 6-8 weeks of age were ovariectomized and rested for 2 weeks. […] At day 2 before induction, the experimental mice also began receiving DHEA at 2 mg/100 g of body weight. The control mice received no DHEA. At day 0, one uterine horn in each animal was subjected to a physical stimulus, 100 μL sesame seed oil injection, to induce a deciduoma. The second horn was left as the unstimulated internal control for each mouse. Day 0 in this case is equivalent to the day of embryo implantation in a physiological mouse pregnancy, which is 4 days post coitus. Five days after the oil injection, uterine horns were dissected out. First the gross anatomies of the uteri were assessed. Representative tissues from two mice in each treatment group are shown (FIG. 7B). […] Protein was isolated from all uterine horns in order to measure the expression of a well-established decidualization protein marker, Bmp2. […] Bmp2 expression was almost undetectable in the unstimulated uterine horns. […] In the same line of experiments, the serum hormone levels were also measured to confirm that findings were strictly the result of increased levels of DHEA.
(§2) Decidualization in vivo under chronically elevated levels of DHEA was also tested. The ovariectomy mouse model described above was used with the following changes: DHEA was administered orally (0.6% supplementation in regular chow diet) starting on the day of ovariectomy. The mice were on the diet for 2 weeks prior to the beginning of the hormone regiments described in FIG. 7A. In FIG. 8A, representative uterine horns are shown from control mice (receiving regular chow) and the treatment mice on 0.6% DHEA diet. […] A quantitative analysis of the decidual reaction in shown in FIG. 8B, where the mass of the uterine horns is shown. Lastly, it should be noted that ovariectomised mice, similar to post-menopausal women, tend to have increased body fat percentage.
(§3) To generate deciduomas 7-8 wk-old female FVB/NJ mice were used and treated as described previously. A time line of the hormone administrations is presented in FIG. 7a, adapted from Herington et al. Briefly, mice were ovariectomized and allowed 2 weeks for recovery. They were then injected with 100 ng 17b-estradiol (E2) (Sigma) for three days, rested two days, and then injected with 10 ng E2/1 μg Progesterone (P4, Sigma) for three days. […] Immediately following the last of the above sensitization injections, the right uterine horn received an intra-luminal injection of 100 μL of sunflower seed oil. Mice continued to receive 1 μg P4 subcutaneously for up to 4 days. Mice receiving the DHEA treatment received […] starting on the day the E2/P4 injections were begun and continued for the 7 days following, until mice were sacrificed. On the day following the last injection, serum samples were collected, the mice were sacrificed and uterine horns dissected out. Serum DHEA, E2 and P4 levels were analyzed by ELISA assays (Alpco Immunoassays).

FVB/NJ mice [3] = experiment: as above; type: in vivo, mouse
Procedure: as §1, §2, §3

embryos = experiment: Transfer of blastocysts cultured in DHEA to pseudopregnant females; type: in vivo, mouse
Procedure: Mice were superovulated and mated with males of known fertility. Forty-five hours after injection with hCG, the oviducts were removed. Two-cell embryos were collected by flushing the oviducts with human tubal fluid media (HTF) with 0.25% BSA. Embryos were cultured in HTF with BSA and either DMSO, 10 μM DHEA or 100 μM DHEA for 72 hours. In vitro cultured blastocysts were transferred to 2.5 days postcoitus (dpc) pseudopregnant ICR females. Resulting embryos and placentas were collected at 14.5 dpc and fixed with Bouin's solution, embedded in paraffin and sectioned.

T1 sequence (Q00612 whole entry): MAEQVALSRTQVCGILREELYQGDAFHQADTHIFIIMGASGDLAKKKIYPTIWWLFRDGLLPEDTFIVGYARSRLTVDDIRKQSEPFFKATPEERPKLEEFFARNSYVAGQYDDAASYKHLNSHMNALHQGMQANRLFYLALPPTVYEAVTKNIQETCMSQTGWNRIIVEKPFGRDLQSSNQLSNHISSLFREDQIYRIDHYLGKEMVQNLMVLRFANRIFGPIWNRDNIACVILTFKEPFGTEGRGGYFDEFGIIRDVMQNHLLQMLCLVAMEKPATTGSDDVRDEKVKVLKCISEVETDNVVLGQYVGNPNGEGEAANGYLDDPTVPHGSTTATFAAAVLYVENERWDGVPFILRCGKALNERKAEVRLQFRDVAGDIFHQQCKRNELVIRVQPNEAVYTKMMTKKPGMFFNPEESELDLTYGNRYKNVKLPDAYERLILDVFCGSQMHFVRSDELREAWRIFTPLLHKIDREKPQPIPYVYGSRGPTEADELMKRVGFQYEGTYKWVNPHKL

C[C@]12CC[C@H](O)CC1=CC[C@@H]1[C@@H]2CC[C@]2(C)C(=O)CC[C@@H]12 [DHEA, dehydroepiandrosterone]
Ovarian morphology (FVB/NJ mice [1]): large cystic structures | G6PDH activity (G6PDH; 0.01% DHEA and 0.1% DHEA groups): decreased | G6PDH activity, of normal (G6PDH; 0.1% DHEA diet): 87% | concentration at 5 day (after oil injection on day 0) [2]: 32.6 ng/mL | Deciduoma formation under chronic DHEA (FVB/NJ mice [3]; 0.6% DHEA in chow, oral, from day of ovariectomy): no difference between the stimulated and unstimulated uterine horns | Decrease in Bmp2 protein induction in deciduomas vs control mice (Western blot) (FVB/NJ mice [3]; DHEA 2 mg/100 g of body weight): 3 fold | Decrease in the decidual response by uterine mass vs controls (FVB/NJ mice [3]; DHEA 2 mg/100 g of body weight): ~3 fold | Morphology of uterine cross sections of stimulated horns (FVB/NJ mice [3]; DHEA 2 mg/100 g of body weight): no decidual cells | Gross deciduoma formation along the stimulated uterine horn (FVB/NJ mice [3]; DHEA 2 mg/100 g of body weight from day 2 before induction, 5 days after oil injection): weak, if any, deciduoma formation | Anomalies in the fetuses or abnormal placental histology (embryos): did not lead to increased anomalies | Fetus size at 14.5 dpc (embryos): significantly smaller fetuses | Placenta size at 14.5 dpc (embryos; p=0.054): smaller placentas
